Reference: patent US11207303B2, “Therapeutic agent for fibrodysplasia ossificans progressiva” (Kyoto University, priority 2015, dated 2021)

System: mesenchymal stem cell-like cells derived from iPS cells established from a FOP patient (ACVR1 R206H)
Assay: Activin-A-induced chondrogenic differentiation of FOP patient-derived cells (sulfated glycosaminoglycan quantification)
Format: cell-based
Settings: 100 ng/mL human activin-A, compound 0.01 to 100 nM, six days, P<0.0001 at 0.1-100 nM rapamycin, 1-100 nM everolimus or temsirolimus vs activin-A only
Excerpt: According to the method of Yamanaka et. al., (Cell, 2007, 131 (5), […]), iPS cells derived from a FOP patient (referred to as “patient-derived iPS cells” in some cases hereafter) were established. […] This mutation is a mutation that replaces the 206th arginine residue into a histidine residue in the amino acid sequence of ACVR1 (the amino acid sequence as set forth in SEQ ID NO:2). In addition, with a view toward using as a control, the mutation of the ACVR1 gene described above was corrected to the normal type (the wild type) by the gene correction with a BAC (Bacterial Artificial Chromosome) knock-in vector, thus establishing corrected iPS cells which may be referred to as “gene-corrected (rescued) iPS cell clone” in some cases hereafter.
The patient-derived iPS cells were cultured on a Matrigel coated plate [manufactured by Becton, Dickinson and Company; trade name, Growth Factor Reduced (GFR) BD MATRIGEL (registered trademark)] in mTeSR1 (manufactured by STEMCELL Technologies Inc.) under a feeder-free condition for two days. […]
These mesenchymal stem cell-like cells were cultured under a condition of a chondrogenic induction medium according to the method of Umeda (Sci. Rep, 2012, 2, 455) for six days and differentiated into chondrocytes. […] Also, compounds for which their inhibitory effect against the chondrogenic differentiation were to be evaluated (concentrations of from 0.01 to 100 nM) were added simultaneously with human activin-A (referred to as “activin-A” in some cases hereafter). […] The degree of differentiation into chondrocytes was measured with a quantification kit for sulfated glycosaminoglycan (manufactured by Biocolor Inc.; trade name, Blyscan Glycosaminoglycan Assay Kit). […]

Structure (SMILES)	chondrogenic differentiation (amount of sulfated glycosaminoglycan)
CO[C@H]1C[C@@H]2CC[C@@H](C)[C@@](O)(O2)C(=O)C(=O)N2CCCC[C@H]2C(=O)O[C@H]([C@H](C)C[C@@H]2CC[C@@H](OCCO)[C@H](OC)C2)CC(=O)[C@H](C)/C=C(\C)[C@@H](O)[C@@H](OC)C(=O)[C@H](C)C[C@H](C)/C=C/C=C/C=C/1C [everolimus]	suppressed the chondrogenic differentiation
CO[C@H]1C[C@@H]2CC[C@@H](C)[C@@](O)(O2)C(=O)C(=O)N2CCCC[C@H]2C(=O)O[C@H]([C@H](C)C[C@@H]2CC[C@@H](OP(C)(C)=O)[C@H](OC)C2)CC(=O)[C@H](C)/C=C(\C)[C@@H](O)[C@@H](OC)C(=O)[C@H](C)C[C@H](C)/C=C/C=C/C=C/1C [ridaforolimus]	suppressed the chondrogenic differentiation
CO[C@H]1C[C@@H]2CC[C@@H](C)[C@@](O)(O2)C(=O)C(=O)N2CCCC[C@H]2C(=O)O[C@H]([C@H](C)C[C@@H]2CC[C@@H](OC(=O)C(C)(CO)CO)[C@H](OC)C2)CC(=O)[C@H](C)/C=C(\C)[C@@H](O)[C@@H](OC)C(=O)[C@H](C)C[C@H](C)/C=C/C=C/C=C/1C [temsirolimus]	suppressed the chondrogenic differentiation
